Data reported in patent publication US20070190628A1, “Yeast food composition for fuel ethanol production” (priority 2006, published 2007).

Legend:
Type in all cases: cell-based, Saccharomyces cerevisiae
active dry yeast “z” [1] = test: Fermentation of normal gravity corn mash with nutrient supplements (Example 4)
Procedure: The effects of the optimized defined urea plus salts-based nutrient supplement, i.e., defined yeast food, developed in Example 3 for corn mash fermentations, were assessed by comparisons of fermentation rates and ethanol production in normal gravity corn mashes and very high gravity corn mashes that were (a) supplemented with 16 mM urea only, or (b) yeast extract, or (c) supplemented with 16 mM urea plus the defined yeast food from Example 3 which in this set of studies, contained 1.6 g/L (NH4)2HPO4, 0.32 g/L (NH4)2SO4, 0.049 g/L MgSO4.7H2O, and 0.273 mg/L ZnSO4.7H2O.
Normal density corn mashes were prepared as described in Example 1 and were determined to contain about 18-20 g dissolved solids per 100 mL mash as determined by density meter analysis. […] The mash thus prepared contained 30-32 g of dissolved solids/100 mL as determined by density meter analysis. […]
Each study was commenced by removing fermentors containing either normal gravity corn mash or very high gravity corn mash from 4° C. storage, connecting them to 30° C. water bath circulators and continually mixing the corn mash contents therein until the temperature of each mash was 30° C. […] Fermentation performance in all treatments was assessed by repeated sampling and analyses of the mashes during the fermentation periods as described in Example 1.

active dry yeast “y” = test: Fermentation performance of commercial active dry yeasts in normal gravity corn mash; conditions: strain “y”
Procedure: (§1) The effects of the defined urea plus salts-based yeast food on fermentation performance of seven commercial active dry yeasts currently used by the fuel alcohol industry (Bellisimi et al., 2005, Am. Soc. Brew. Chem. J. Vol. 63, pp. 107-112) and designated herein as strains “b”, “d”, “e”, “w”, “x”, “y”, and “z”, were assessed in normal gravity corn mash prepared as described in Example 1. The commercial active dry yeasts were assessed with the following corn mash supplanted as follows: (a) 8 mM urea (control), or (b) 1% yeast extract, or (c) 8 mM urea supplemented with the defined urea plus salts yeast food of the present invention. The fermentation methods were followed as outlined in Example 4. Fermentation rates were determined by repeated sampling and sample processing at specific time intervals as described in Example 1.

active dry yeast “d” = test: as above; conditions: strain “d”
Procedure: as §1

active dry yeast “e” = test: as above; conditions: strain “e”
Procedure: as §1

active dry yeast “x” = test: as above; conditions: strain “x”
Procedure: as §1

active dry yeast “z” [2] = test: as above; conditions: strain “z”
Procedure: as §1

active dry yeast “w” = test: as above; conditions: strain “w”
Procedure: as §1

[3] = complete disappearance of 20 g of dissolved solids/100 mL

NC(N)=O [urea]
fermentation period required to complete fermentation (disappearance of dissolved solids) (active dry yeast “z” [1]): 48 h
Fermentation rate (active dry yeast “y”; normal gravity corn mash): 0.83 ± 0.01 g/100 mL/hr
Fermentation time (active dry yeast “y”; [3]): 48 h
Fermentation rate (active dry yeast “d”; normal gravity corn mash): 0.74 ± 0.03 g/100 mL/hr
Fermentation time (active dry yeast “d”; [3]): 48 h
Fermentation rate (active dry yeast “e”; normal gravity corn mash): 0.67 ± 0.01 g/100 mL/hr
Fermentation time (active dry yeast “e”; [3]): 72 h
Fermentation rate (active dry yeast “x”; normal gravity corn mash): 0.80 ± 0.06 g/100 mL/hr
Fermentation time (active dry yeast “x”; [3]): 48 h
Fermentation rate (active dry yeast “z” [2]; normal gravity corn mash): 0.79 ± 0.01 g/100 mL/hr
Fermentation time (active dry yeast “z” [2]; [3]): 48 h
Fermentation rate (active dry yeast “w”; normal gravity corn mash): 0.82 ± 0.02 g/100 mL/hr
Fermentation time (active dry yeast “w”; [3]): 48 h
